# Laboratory results taken from patent publication EP1399176B1, “SUBSTANTIALLY PURE GLYCOPEPTIDE ANTIBIOTICS AC-98-1; AC-98-2; AC-98-3; AC-98-4 AND AC-98-5” (Wyeth Holdings Corporation, priority 2001, dated 2002).
# Numbered stars: 1 amine (or outer) side, 2 acyl side, 3 side chain; on linkers, the order of the positions; unused ones are H or OH. Square brackets hold non-standard residues; d marks the D form. Peptide text beside a SMILES is read from it. * marks the point of attachment. ξ: configuration not given here. X1 = N=C1NCC(C(O)C(N[*:1])C(=O)[*:2])N1C1OC(CO)C(O)C(O)C1O; ξEnduracididine(βξ-OH,4'ξ) = N=C1NCC(C(O)C(N)C(=O)O)N1; X2 = OCC1OC(OC2C(CO)OC(*)C(O)C2O)C(O)C(O)C1O; ξPhe(βξ-Me) = CC(c1ccccc1)C(N)C(=O)O
# What was measured:
# Assay in all cases: in vitro antibacterial activity, agar dilution method (MIC)
# Assay type in all cases: cell-based
# Design in all cases: unit not given here
# Details in all cases: Mueller-Hinton agar containing 5% sheep blood, 18 hours incubation
# [1] = system: Staphylococcus hemolyticus (ID-4061)
# Method: (§1) The in vitro antibacterial activity of substantially pure glycopeptide antibiotics AC-98-1, AC-98-2, AC-98-3, AC-98-4, and AC-98-5 from Examples 2 and 3 is determined against a spectrum of bacteria by a standard agar dilution method. Mueller-Hinton agar containing 5% sheep blood and two-fold decreasing concentrations of substantially pure glycopeptide antibiotics AC-98-1, AC-98-2, AC-98-3, AC-98-4, and AC-98-5 from Examples 2 and 3 are poured into petri dishes. The agar surfaces are inoculated with 1 to 5 X 10^4 colony forming units of bacteria by means of a Steers replicating device. The lowest concentration of antibiotic that inhibited the growth of a bacterial strain after 18 hours incubation is recorded as the minimal inhibitory concentration for that strain. Table II. In vitro antibacterial activity of substantially pure antibiotics AC-98-1, AC-98-2, AC-98-3, AC-98-4, and AC-98-5 from Examples 2 and 3
# [2] = system: Enterococcus faecalis (ATCC 29212)
# Method: as §1
# [3] = system: Staph Coagulase Neg (4615)
# Method: as §1
# [4] = system: Bacillus subtilis (Bacto)
# Method: as §1
# [5] = system: Enterococcus faecalis (ID-2131)
# Method: as §1
# [6] = system: Pseudomonas aeruginosa (ATCC 27853)
# Method: as §1
# [7] = system: Morganella morganii (VGH 84-11)
# Method: as §1
# [8] = system: Enterococcus faecium (12202)
# Method: as §1
# [9] = system: Enterococcus faecalis (ID-1829)
# Method: as §1
# [10] = system: Enterococcus faecium (ID-4133)
# Method: as §1
# [11] = system: Staphylococcus aureus (SMITH)
# Method: as §1
# [12] = system: Staphylococcus aureus (ID-2727)
# Method: as §1
# [13] = system: Staphylococcus aureus (ID-2371)
# Method: as §1
# [14] = system: Staph Coagulase Neg (ID-3276)
# Method: as §1
# [15] = system: Staphylococcus aureus (ATCC 29213)
# Method: as §1
# [16] = system: Staphylococcus aureus (ID-4379)
# Method: as §1
# [17] = system: Enterococcus faecium (ID-3301)
# Method: as §1
# [18] = system: Enterococcus faecium (ID-3953)
# Method: as §1
# [19] = system: Staphylococcus aureus (NEMC-89-4)
# Method: as §1
# [20] = system: Staphylococcus aureus (ID-3105)
# Method: as §1
# [21] = system: Escherichia coli (J2175)
# Method: as §1
Compound,MIC [2],MIC [3],MIC [4],MIC [5],MIC [6],MIC [7],MIC [8],MIC [9],MIC [13],MIC [17],MIC [18],also measured
"CC(c1ccccc1)C1NC(=O)CNC(=O)C(CO)NC(=O)C(C(O)C2CNC(=N)N2C2OC(CO)C(O)C(O)C2O)NC(=O)C(C(O)C2CNC(=N)N2)NC(=O)C(Cc2ccc(OC3OC(CO)C(OC4OC(CO)C(O)C(O)C4O)C(O)C3O)cc2)NC1=O (stereo not drawn) [AC-98-1] (cyclo(G[ξPhe(βξ-Me)]Y(X2)[ξEnduracididine(βξ-OH,4'ξ)][X1]S); configuration not given here)",>128,>128,>128,>128,>128,>128,>128,>128,>128,>128,>128,MIC [1]: 128; MIC [10]: 128; MIC [11]: 128; MIC [12]: >128; MIC [14]: 128; MIC [15]: 128; MIC [16]: 128; MIC [19]: >128; MIC [20]: 128
"CC(c1ccccc1)C1NC(=O)CNC(=O)C(CO)NC(=O)C(C(O)C2CNC(=N)N2C2OC(CO)C(O)C(O)C2O)NC(=O)C(C(O)C2CNC(=N)N2)NC(=O)C(Cc2ccc(O)cc2)NC1=O (stereo not drawn) [AC-98-2] (cyclo(G[ξPhe(βξ-Me)]Y[ξEnduracididine(βξ-OH,4'ξ)][X1]S); configuration not given here)",>128,128,>128,>128,>128,>128,128,128,128,>128,128,
CC(C)CC(=O)OC1C(OC2C(CO)OC(Oc3ccc(CC4NC(=O)C(C(C)c5ccccc5)NC(=O)CNC(=O)C(CO)NC(=O)C(C(O)C5CNC(=N)N5C5OC(CO)C(O)C(O)C5O)NC(=O)C(C(O)C5CNC(=N)N5)NC4=O)cc3)C(O)C2O)OC(CO)C(O)C1O (stereo not drawn) [AC-98-3],,,,128,>128,>128,,,,,,
CC(C)CC(=O)OC1C(O)C(CO)OC(OC2C(CO)OC(Oc3ccc(CC4NC(=O)C(C(C)c5ccccc5)NC(=O)CNC(=O)C(CO)NC(=O)C(C(O)C5CNC(=N)N5C5OC(CO)C(O)C(O)C5O)NC(=O)C(C(O)C5CNC(=N)N5)NC4=O)cc3)C(O)C2O)C1O (stereo not drawn) [AC-98-4],,,,,>128,>128,,,,,,MIC [21]: 128
CC(C)CC(=O)OC1C(CO)OC(OC2C(CO)OC(Oc3ccc(CC4NC(=O)C(C(C)c5ccccc5)NC(=O)CNC(=O)C(CO)NC(=O)C(C(O)C5CNC(=N)N5C5OC(CO)C(O)C(O)C5O)NC(=O)C(C(O)C5CNC(=N)N5)NC4=O)cc3)C(O)C2O)C(O)C1O (stereo not drawn) [AC-98-5],,,,,>128,>128,,,,,,
